“Also recorded” adds a separate entry of the source.
Assays:
FaDu xenografts = assay: Longitudinal dual tracer PET in two FaDu xenografts; assay type: in vivo, human tumor xenograft in NIH-Foxn1mu rat; details: rat, [^18F]FDG
Procedure: (§1) A431 (human epidermoid carcinoma) and FaDu (human squamous carcinoma of the hypopharynx) cell lines were purchased from American Type Culture Collection (ATCC). The cells were cultured in Dulbecco’s Modified Eagle’s Medium (4500 mg/L D-glucose containing L-glutamine) and were maintained at 37 °C in a humidified atmosphere, containing 5% CO2. All media were additionally supplemented with 1 mM sodium pyruvate, 100 units penicillin/mL, 100 μg streptomycin/mL, and 10% fetal bovine serum (Gibco). Media for FaDu cells were further supplemented with 0.1 mM non-essential amino acids and 2 mM HEPES. The integrity of the cell lines was verified with short tandem repeat profiling cell authentication analysis (LGC Standards).
(§2) Rodents were anaesthetized (1.5% isoflurane (Virbac, Carros Cedex, France) blended with air (7:3) in a vaporizer (E-Z systems) delivered through a Microflex non-rebreather mask (Euthanex Corp)) and then i.v. injected (tail vein) with the radiotracer. PET imaging was performed using a microPET Focus 120 (CTI Concorde Microsystems, Knoxville, TN, USA). Data were acquired in list mode and reconstructed using Filtered Back Projection for the constant bed motion (CBM) scans or, to increase the spatial resolution in the dynamic scans, Ordered Subset […] in 2 dimensions, 4 iterations, and 16 subsets. Data, normalized and corrected for randoms, dead time, and radioactivity decay, were processed using MicroPET Manager and evaluated using the Inveon Research Workplace (IRW) software (Siemens Medical Systems, Malvern, PA, USA). The ROI selections were based on the PET images and the radioactivity in ROIs was calculated as mean or maximum standard uptake values (SUVmean or SUVmax) normalized to body weight. Blood ROIs were delineated on the left ventricle of the heart in the first frames of the scan. Liver ROIs were drawn on one lobe. Muscle ROIs were drawn on the front (rat) and hind (mouse) leg muscle on the images summed over the entire scan. […] Growth of the tumor xenografts was monitored by caliper measurements. […]

A431 xenografts = assay: PET uptake in A431 xenografts after nitroglycerin (NG) ointment; assay type: in vivo, human tumor xenograft in NIH-Foxn1mu rat; details: NG ointment 1 mg/tumor cutaneous, [^68Ga]ABY-028 uptake
Procedure: as §1, §2

Compound | increase of uptake between early and late imaging, day 0 (FaDu xenografts; both FaDu tumors, 50 to 160 min, day 0) | increase of uptake between early and late imaging, day 3 (FaDu xenografts; both FaDu tumors, 50 to 160 min, day 3) | decrease of SUV in tumor center, left tumor, day 3 (FaDu xenografts; left FaDu tumor, area in center extending to one edge, both time points) | effect of NG on tracer radioactivity in A431 xenografts (A431 xenografts) | effect of NG on tracer radioactivity in A431 xenografts (A431 xenografts; listed as NG) | effect of NG on tracer radioactivity in A431 xenografts (A431 xenografts; listed as Nitroglycerin (NG))
O=C[C@H]([18F])[C@@H](O)[C@H](O)[C@H](O)CO [[^18F]FDG, [2-^18F]-2-Fluoro-2-deoxy-D-glucose] | approximately 20% | ~35% | approximately 30% | – | – | –
O=[N+]([O-])OCC(CO[N+](=O)[O-])O[N+](=O)[O-] [nitroglycerin, glyceryltrinitrate] | – | – | – | increased radioactivity in the A431 xenografts | A more rapid increase in focal radioactivity levels; also recorded: increased uptake of albumin-bound [^68Ga]ABY-028 | NG-induced changes are revealed by the SUVmax
